{"source": "patent US20100298347A1", "about": "“SUBSTITUTED 2-NAPHTHOIC ACIDS AS ANTAGONISTS OF GPR105 ACTIVITY” (MERCK FROSST CANADA LTD, priority 2007, published 2010)"}
{"biological_target": "T1, chimpanzee GPR105 protein (Pan troglodytes, UniProt A0A2J8P2M1)", "T1 construct": "expressed in transfected cells", "T1 sequence (A0A2J8P2M1 1-338)": "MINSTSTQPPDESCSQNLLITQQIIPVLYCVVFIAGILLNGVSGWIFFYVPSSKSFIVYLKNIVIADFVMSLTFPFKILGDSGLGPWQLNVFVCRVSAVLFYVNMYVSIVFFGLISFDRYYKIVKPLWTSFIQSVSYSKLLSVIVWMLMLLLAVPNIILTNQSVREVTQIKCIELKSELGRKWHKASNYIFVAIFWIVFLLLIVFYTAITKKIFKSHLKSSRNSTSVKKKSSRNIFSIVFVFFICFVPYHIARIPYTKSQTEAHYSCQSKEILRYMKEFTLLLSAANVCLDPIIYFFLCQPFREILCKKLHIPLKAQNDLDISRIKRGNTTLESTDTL", "assay": "Cell-Binding Assay: FLIPR calcium signaling in HEK/GPR105/Gqi5 cells, inhibition of UDP-glucose agonist", "assay_type": "cell-based", "conditions": "HEK cells expressing chimpanzee GPR105 and Gqi5; UDP-glucose agonist at EC80; inhibition of Ca2+ signaling by FLIPR", "method": "A stable HEK clonal cell line expressing the chimpanzee GPR105 protein and the chimeric G protein Gqi5 was developed. The chimeric Gqi5 forces the coupling of GPR105 through the Gq (calcium) pathway and allows for monitoring of calcium signaling using a calcium binding fluorescent dye and the FLIPR (fluorometric imaging plate reader, MDS Sciex). 12,500 HEK/GPR105/Gqi5 expressing cells were plated in 25 μL Dulbecco's Modified Eagle's Medium (DMEM) containing 10% fetal bovine serum (FBS) onto 384-well, poly-D-lysine coated plates. Cells were incubated overnight at 37° C. and 5% CO2 to form a monolayer. On the following day, 30 μl, of fluorescent no-wash dye was added to the cell monolayer and the plate was incubated for […] at 37° C., 5% CO2. […] of compound in 100% DMSO was added to cell/dye incubation using acoustic dispensing (Echo™, Labcyte). Following a 20 minute incubation of compound at room temperature, 6.25 μL of UDP-glucose agonist (at EC80) in Hank's Balanced Salt Solution (HBSS) containing 20 mM Hepes was added to cells and Ca^2+ signaling was monitored by FLIPR. Quantitation of the % inhibition of Ca^2+ signaling by antagonist was calculated using the maximum fluorescent signal detected. IC50's for the compounds of structural formula (I) were calculated as follows:\na.) Basal=incubation of cells+DMSO+Buffer; b.) EC80=incubation of cells of DMSO+agonist to achieve 80% maximum stimulation of calcium release; c.) Compound=incubation of cells+antagonist in DMSO+EC80 agonist; d.) Calcium release monitored by Fluorescence (RFU relative fluorescence units) using the FLIPR; e.) The percentage of inhibition was calculated according to the equation: (1−(compound sample−Basal)/(EC80−Basal))×100; f.) The percentage of inhibition at each dose was plotted, the Four Parameter Logistic Fit performed to draw the curve and the IC50 is the compound dose where the % inhibition=50%.", "units": {"IC50": "nM"}}
{"smiles": "O=C(O)c1cc(-c2ccccc2)c2ccc(OCc3c(Cl)ccc(Cl)c3Cl)cc2c1", "IC50": 21.7}
{"smiles": "Cc1cccc(C)c1COc1ccc2c(-c3ccsc3)cc(C(=O)O)cc2c1", "IC50": 16.3}
{"smiles": "Cc1cccc(C)c1COc1ccc2c(-c3ccc(C(=O)O)cc3)cc(C(=O)O)cc2c1", "IC50": 11}
{"smiles": "C[S+]([O-])c1ccc(-c2cc(C(=O)O)cc3cc(-c4ccc(C(F)(F)F)cc4)ccc23)cc1", "note": "(centres unmarked)", "IC50": 13.9}
{"smiles": "O=C(O)c1cc(-c2ccsc2)c2ccc(OCc3c(Br)cccc3Br)cc2c1", "IC50": 24.3}
{"smiles": "O=C(O)c1cc(-c2ccc(C3CCNCC3)cc2)c2ccc(-c3ccc(C(F)(F)F)cc3)cc2c1", "IC50": 2.2}
{"smiles": "O=C(O)c1cc(-c2ccsc2)c2ccc(OCc3c(Cl)cncc3Cl)cc2c1", "note": "[drawing 30]", "IC50": 15.1}
{"smiles": "O=C(O)c1cc(-c2ccsc2)c2ccc(OCc3cc(C(F)(F)F)ccc3Cl)cc2c1", "IC50": 26}
{"smiles": "CC(=O)c1ccc(-c2cc(C(=O)O)cc3cc(OCc4c(C)cccc4C)ccc23)cc1", "IC50": 17.5}
{"smiles": "O=C(O)c1cc(-c2ccsc2)c2ccc(OCc3c(Cl)ccc(Cl)c3Cl)cc2c1", "IC50": 7.3}
{"smiles": "O=C(O)c1cc(-c2ccc([C@@H](O)C(F)(F)F)cc2)c2ccc(-c3ccc(C(F)(F)F)cc3)cc2c1", "IC50": 11.3}
{"smiles": "Cc1cccc(C)c1COc1ccc2c(-c3ccc(CO)cc3)cc(C(=O)O)cc2c1", "IC50": 16.6}
{"smiles": "O=C(O)c1cc(-c2ccc([C@@H](O)C(F)F)cc2)c2ccc(-c3ccc(C(F)(F)F)cc3)cc2c1", "IC50": 5.4}
{"smiles": "O=C(O)c1cc(-c2ccsc2)c2ccc(OCc3c(Cl)cccc3Cl)cc2c1", "IC50": 9.4}
{"smiles": "CSc1ccc(-c2ccc3c(-c4ccc([C@@H](O)C(F)F)cc4)cc(C(=O)O)cc3c2)cc1", "IC50": 12.4}
{"smiles": "O=C(O)c1cc(-c2ccc(-c3cn4cccnc4n3)cc2)c2ccc(-c3ccc(C(F)(F)F)cc3)cc2c1", "IC50": 3}
{"smiles": "Cc1cccc(C)c1COc1ccc2c(OCc3ccccc3)cc(C(=O)O)cc2c1", "IC50": 21.2}
{"smiles": "O=C(O)c1cc(-c2ccc([C@@H](O)C(F)F)cc2)c2ccc(-c3ccc(F)cc3)cc2c1", "IC50": 14}
{"smiles": "CS(=O)(=O)c1cc(-c2cc(C(=O)O)cc3cc(-c4ccc(C(F)(F)F)cc4)ccc23)cs1", "IC50": 12.2}
{"smiles": "O=C(O)c1cc(-c2ccsc2)c2ccc(OCc3c(F)cccc3Cl)cc2c1", "IC50": 12.5}
{"smiles": "O=C(O)c1cc2cc(-c3ccc(C(F)(F)F)cc3)ccc2c(-c2ccc([C@@H](O)C(F)F)cc2)c1F", "IC50": 24.8}
{"smiles": "O=C(O)c1cc(-c2ccsc2)c2ccc(OCc3c(F)cccc3F)cc2c1", "IC50": 22.6}
{"smiles": "Cc1cccc(C)c1COc1ccc2c(-c3ccc(S(C)(=O)=O)cc3)cc(C(=O)O)cc2c1", "IC50": 11.9}
{"smiles": "Cc1cccc(C)c1COc1ccc2c(-c3ccc(C(C)(C)O)cc3)cc(C(=O)O)cc2c1", "IC50": 16.1}
{"smiles": "Cc1ccc(C(F)(F)F)cc1COc1ccc2c(-c3ccsc3)cc(C(=O)O)cc2c1", "IC50": 16.8}
{"smiles": "O=C(O)c1cc(-c2ccsc2)c2ccc(-c3ccc(OC(F)(F)F)cc3)cc2c1", "IC50": 12.7}
{"smiles": "COc1ccccc1COc1cc(C(=O)O)cc2cc(OCc3c(C)cccc3C)ccc12", "IC50": 14.1}
{"smiles": "Cc1cccc(C)c1COc1ccc2c(-c3ccc(O)cc3)cc(C(=O)O)cc2c1", "IC50": 18.4}
{"smiles": "O=C(O)c1cc(-c2ccsc2)c2ccc(OCc3c(Cl)cncc3Cl)cc2c1", "note": "[drawing 14]", "IC50": 7.5}
{"smiles": "Cc1cc(F)cc(C)c1COc1ccc2c(-c3ccsc3)cc(C(=O)O)cc2c1", "IC50": 14.4}
{"smiles": "O=C(O)c1cc(-c2csc(C(O)C(F)F)c2)c2ccc(-c3ccc(C(F)(F)F)cc3)cc2c1", "note": "(centres unmarked)", "IC50": 7.1}
{"smiles": "CS(=O)(=O)c1cc(-c2cc(C(=O)O)cc3cc(-c4ccc(OC(F)(F)F)cc4)ccc23)cs1", "IC50": 23.9}
{"smiles": "O=C(O)c1cc2cc(-c3ccc(C(F)(F)F)cc3)ccc2c(-c2ccc([C@H](O)C(F)(F)F)cc2)c1F", "IC50": 25.5}
{"smiles": "Cc1cccc(C)c1COc1ccc2c(-c3ccc4c(c3)OCO4)cc(C(=O)O)cc2c1", "IC50": 19.4}
{"smiles": "O=C(O)c1cc(-c2ccsc2)c2ccc(OCc3c(F)cc(F)cc3F)cc2c1", "IC50": 10.5}
{"smiles": "O=C(O)c1cc(-c2ccc(-c3nnc[nH]3)cc2)c2ccc(-c3ccc(C(F)(F)F)cc3)cc2c1", "IC50": 13.3}
{"smiles": "O=C(O)c1cc(-c2ccsc2)c2ccc(OCc3c(Cl)cccc3Br)cc2c1", "IC50": 17.8}
{"smiles": "O=C(O)c1cc(-c2ccc(C3(O)CCNCC3)cc2)c2ccc(-c3ccc(C(F)(F)F)cc3)cc2c1", "IC50": 6.3}
{"smiles": "Cc1ccc(Cl)c(COc2ccc3c(-c4ccsc4)cc(C(=O)O)cc3c2)c1F", "IC50": 20.3}
{"smiles": "Cc1cccc(C)c1COc1ccc2c(-c3ccc(C=O)cc3)cc(C(=O)O)cc2c1", "IC50": 22.5}
{"smiles": "O=C(O)c1cc(-c2ccc(C(O)C(F)(F)F)cc2)c2ccc(-c3ccc(C(F)(F)F)cc3)cc2c1", "note": "(centres unmarked)", "IC50": 13}
